Results from patent US20220324770A1, “NITRIFICATION INHIBITORS” (The University of Melbourne, priority 2019, published 2022).

Assays:
Dahlen soil = assay: Soil microcosm incubation (nitrification of applied ammonium), Dahlen soil; conditions: for Nitrified NH4+—N (%) Day 3 / Nitrified NH4+—N (%) Day 7 / Nitrified NH4+—N (%) Day 14 / Nitrified NH4+—N (%) Day 21 / Nitrified NH4+—N (%) Day 28: 10 mol %
Procedure: (§1) The soil used in this study was collected from four different locations in Victoria, Australia: (i) a wheat cropping soil from Horsham (36° 45′S, 142° 07′ E), (ii) a rotational cropping soil from Dahlen (36° 37′S, 142° 09′ E), (iii) a vegetable growing soil from Clyde (38° 08′S, 145° 20′ E), and (iv) a pasture soil from Terang (38° 15′S, 142° 52′E). In addition, a sugarcane cropping soil from South Johnstone in northern Queensland (17° 34′S, 145° 57′ E) was also studied. The water content of the soil was calculated before commencing each experiment, from samples that were oven-dried to constant weight. The soil's water-filled pore space (WFPS) was in the range 52%-61%, which is within the recommended 50-70% range for microbial activity due to oxygen and nutrient availability (Fichtner, T., et al., Applied Sciences, 2019, 9, 496).
(§2) Soil microcosm incubations were carried out in 250 ml polypropylene specimen containers (Sarstedt, Germany), containing 18.24 g oven dry-weight equivalent of soil. Microcosms were re-wetted and pre-incubated at the test temperature for seven days to revive soil microbial activity. Following pre-incubation, the remaining volume to reach the desired water-filled pore spaces (WFPS %) was applied as one of the following treatment solutions; (NH4)2SO4(Control), (NH4)2SO4+DMPP, or (NH4)2SO4+one of Compounds 1-23. Each treatment was applied in triplicate per soil type, so that n=3 at each time point.
(§3) Treatment solutions were prepared such that each microcosm received (NH4)2SO4 at a rate of 100 mg N per kg soil, Compounds 1-23 at 10 mol % of applied N, or DMPP at one of 1.5, 3.6 or 10 mol % of applied N, referred to as L-DMPP, M-DMPP or H-DMPP respectively.
(§4) The microcosms were incubated for 0, 3, 7, 14, 21 or 28 days, where day 0 samples were extracted following 1-hour incubation post-treatment. Soil microcosms were aerated and moisture levels were replenished based on weight loss every few days throughout the incubation period.
(§5) At the end of each incubation period, soil microcosms were destructively sampled by treatment with 2M KCl (100 mL). After shaking for 1 hour, soil-KCl solutions were filtered (Whatman 42) before storing the filtrates at −20° C. until the conclusion of the experiment. All KCl extracts were then analysed by Segmented Flow Analysis (San++, Skalar, Breda, The Netherlands) for the concentration of nitrogen from ammonium (NH4^+—N) and nitrogen from NO3 and NO2 (NOx^−—N) after appropriate dilutions. Results are reported as the mean of three replicates, errors reported are standard errors of the mean.
(§6) Nitrification calculations were performed as previously reported (Aulakh, M., et al., Biology and Fertility of Soils 2001, 33, 258-263; Mahmood, T., et al., Soil Research 2017, 55, 715-722) without correction for the initial baseline concentrations of NH4^+—N or NO3^− N in the untreated soil. For each treatment nitrified NH4^+—N (%) was calculated according to eqn. 1:
(§7) where [NH4^+—N]0 is the NH4^+—N concentration (in mg N kg^−1 soil) of the soil on day 0 and [NH4^+—N]t is the NH4^+—N concentration (in mg N kg^−1 soil) of the soil at a given time point t.
(§8) NOx^−—N accumulation rates (mg NOx^−—N/kg soil/day) over the 28-day incubation experiments were calculated for each treatment as in the following (eqn. 2):
(§9) [NOx^−—N]t=0 and [NOx^−—N]t=28 are the combined concentrations of nitrite (NO2) and nitrate (NO3) in the soil (in mg N kg^−1 soil) on day 0 and day 28, respectively.

South Johnstone soil = assay: Soil microcosm incubation (nitrification of applied ammonium), South Johnstone soil; conditions: for Nitrified NH4+—N (%) Day 3 / Nitrified NH4+—N (%) Day 7 / Nitrified NH4+—N (%) Day 14 / Nitrified NH4+—N (%) Day 21 / Nitrified NH4+—N (%) Day 28: 10 mol %
Procedure: as §1, §2, §3, §4, §5, §6, §7

Horsham soil = assay: Soil microcosm incubation (nitrification of applied ammonium), Horsham soil
Procedure: as §1, §2, §3, §4, §5, §6, §7, §8, §9

Terang soil = assay: Soil microcosm incubation (nitrification of applied ammonium), Terang soil
Procedure: as §1, §2, §3, §4, §5, §6, §7

[1] = ranging from no effect; cited from earlier work
[2] = temperature of 35° C.; cited from earlier work
[3] = Dahlen soil, 35° C., after 28 days
[4] = Table 4, Dahlen soil pH 7.3, 25° C.
[5] = Table 4, Dahlen soil pH 7.3, 35° C.
[6] = South Johnstone soil pH 5.0, 25° C., negative = NH4+—N higher than day 0 (mineralisation)
[7] = South Johnstone soil pH 5.0, 25° C.
[8] = South Johnstone soil pH 5.0, 25° C., day 28
[9] = South Johnstone soil pH 5.0, 35° C.
[10] = South Johnstone soil pH 5.0, 35° C., day 28
[11] = Horsham soil pH 8.8, 25° C., inhibitors 10 mol % of applied N
[12] = Horsham soil pH 8.8, 25° C., 10 mol %
[13] = Horsham soil pH 8.8, 35° C., 10 mol %
[14] = Table 5, Dahlen soil pH 7.3, 25° C.
[15] = Table 5, Dahlen soil pH 7.3, 35° C.

## CCCc1cn(CCC)nn1 [Compound 16, 1,4-dipropyl-1H-1,2,3-triazole]
Dahlen soil; Dahlen soil, 25° C., after 28 days
  retaining NH4+—N vs uninhibited control treatment and DMPP: performed statistically better
Dahlen soil; Dahlen soil, 35° C., 28-day incubation
  NOx−—N accumulation rate: 1.8 mg NOx−—N/kg soil/day
Dahlen soil; [3]
  ammonia consumption: 17%
  retaining NH4+ vs both DMPP treatment and control treatment: performed statistically better
Dahlen soil; [4]
  Nitrified NH4+—N (%) Day 3: 8.8 ± 3.3%
  Nitrified NH4+—N (%) Day 7: 15.6 ± 5.0%
  Nitrified NH4+—N (%) Day 14: 16.4 ± 28.7%
  Nitrified NH4+—N (%) Day 21: 26.9 ± 4.6%
  Nitrified NH4+—N (%) Day 28: 37.3 ± 4.4%
Dahlen soil; [5]
  Nitrified NH4+—N (%) Day 3: 1.5 ± 1.4%
  Nitrified NH4+—N (%) Day 7: 6.0 ± 1.5%
  Nitrified NH4+—N (%) Day 14: 16.1 ± 4.5%
  Nitrified NH4+—N (%) Day 21: 29.8 ± 1.2%
  Nitrified NH4+—N (%) Day 28: 16.9 ± 2.6%
South Johnstone soil; [6]
  Nitrified NH4+—N (%) Day 3: −6.3 ± 0.8%
South Johnstone soil; [7]
  Nitrified NH4+—N (%) Day 7: −11.5 ± 0.8%
  Nitrified NH4+—N (%) Day 14: −14.4 ± 0.7%
  Nitrified NH4+—N (%) Day 21: −16.8 ± 1.2%
South Johnstone soil; [8]
  Nitrified NH4+—N (%) Day 28: −13.2 ± 0.7%
South Johnstone soil; [9]
  Nitrified NH4+—N (%) Day 3: −14.7 ± 1.9%
  Nitrified NH4+—N (%) Day 7: −26.3 ± 1.7%
  Nitrified NH4+—N (%) Day 14: −35.7 ± 2.4%
  Nitrified NH4+—N (%) Day 21: −35.7 ± 0.6%
South Johnstone soil; [10]
  Nitrified NH4+—N (%) Day 28: −18.4 ± 2.3%
South Johnstone soil; South Johnstone soil, 35° C.
  retaining NH4+—N vs DMPP: performed statistically better than DMPP
South Johnstone soil; South Johnstone soil, 35° C., day 28
  retaining NH4+—N and slowing NOx−—N growth vs fertilised control: performed statistically better than the fertilised control
Horsham soil; [11]
  Nitrified NH4+—N (%) Day 3: 8.9 ± 3.4%
Horsham soil; [12]
  Nitrified NH4+—N (%) Day 7: 24.9 ± 3.0%
  Nitrified NH4+—N (%) Day 14: 44.2 ± 3.3%
  Nitrified NH4+—N (%) Day 21: 57.5 ± 3.4%
  Nitrified NH4+—N (%) Day 28: 70.9 ± 3.9%
Horsham soil; [13]
  Nitrified NH4+—N (%) Day 3: 2.5 ± 4.5%
  Nitrified NH4+—N (%) Day 7: 22.3 ± 4.3%
  Nitrified NH4+—N (%) Day 14: 42.3 ± 4.6%
  Nitrified NH4+—N (%) Day 21: 74.9 ± 6.1%
  Nitrified NH4+—N (%) Day 28: 83.7 ± 6.1%
Horsham soil; Horsham soil, 25° C., after 28 days
  retaining NH4+ vs uninhibited control treatment: performed statistically better
Horsham soil; Horsham soil, 35° C.
  nitrification rates vs uninhibited control treatment: lower nitrification rates than the uninhibited control treatment

## Cc1c[nH]nc1C.O=P(O)(O)O [DMPP, 3,4-dimethylpyrazole phosphate, reference compound]
Terang soil; Terang soil pH 6.5, 25° C., day 3, compounds 10 mol % of applied N, L-DMPP 1.5 mol %, (NH4)2SO4 100 mg N per kg soil
  Nitrified NH4+—N (%) Day 3: 23.5 ± 3.7%
Terang soil; Terang soil pH 6.5, 25° C., day 7, compounds 10 mol %, L-DMPP 1.5 mol %
  Nitrified NH4+—N (%) Day 7: 47.8 ± 2.0%
Terang soil; Terang soil pH 6.5, 25° C., day 14, compounds 10 mol %, L-DMPP 1.5 mol %
  Nitrified NH4+—N (%) Day 14: 89.6 ± 3.1%
Terang soil; Terang soil pH 6.5, 25° C., day 28, compounds 10 mol %, L-DMPP 1.5 mol %
  Nitrified NH4+—N (%) Day 28: 100 ± 2.5%
Terang soil; Terang soil, 25° C.
  retaining NH4+—N in the soil compared with the fertilised control: most effective treatments
Dahlen soil; Dahlen soil, 35° C. vs 25° C.
  performance at higher temperature: performed significantly poorer at the higher temperature
Dahlen soil; Dahlen soil, 35° C., Table 5 test
  retaining NH4+—N vs (NH4)2SO4-treated control by day 28: remain highly effective
Dahlen soil; Dahlen soil, 35° C., day 21 (Table 5)
  nitrified ammonia: 52%
Dahlen soil; [4]
  Nitrified NH4+—N (%) Day 3: 2.1 ± 2.8%
  Nitrified NH4+—N (%) Day 7: 11.7 ± 6.7%
  Nitrified NH4+—N (%) Day 14: 17.3 ± 12.7%
  Nitrified NH4+—N (%) Day 21: 18.2 ± 6.6%
  Nitrified NH4+—N (%) Day 28: 18.6 ± 4.9%
Dahlen soil; [5]
  Nitrified NH4+—N (%) Day 3: 2.4 ± 3.0%
  Nitrified NH4+—N (%) Day 7: 24.8 ± 2.7%
  Nitrified NH4+—N (%) Day 14: 25.6 ± 3.8%
  Nitrified NH4+—N (%) Day 21: 48.3 ± 6.4%
  Nitrified NH4+—N (%) Day 28: 60.5 ± 8.4%
Dahlen soil; Table 5 (further comparative test), Dahlen soil pH 7.3, 25° C.
  Nitrified NH4+—N (%) Day 3: 4.9 ± 3.1%
Dahlen soil; [14]
  Nitrified NH4+—N (%) Day 7: 11.0 ± 3.2%
  Nitrified NH4+—N (%) Day 14: 17.4 ± 4.2%
  Nitrified NH4+—N (%) Day 21: 28.7 ± 5.2%
  Nitrified NH4+—N (%) Day 28: 21.8 ± 3.3%
Dahlen soil; [15]
  Nitrified NH4+—N (%) Day 3: 15.3 ± 2.9%
  Nitrified NH4+—N (%) Day 7: 15.8 ± 2.5%
  Nitrified NH4+—N (%) Day 14: 16.0 ± 6.0%
  Nitrified NH4+—N (%) Day 21: 51.5 ± 5.4%
  Nitrified NH4+—N (%) Day 28: 38.5 ± 2.9%
South Johnstone soil; [6]
  Nitrified NH4+—N (%) Day 3: −12.5 ± 8.8%
South Johnstone soil; [7]
  Nitrified NH4+—N (%) Day 7: −10.3 ± 0.7%
  Nitrified NH4+—N (%) Day 14: −12.5 ± 0.6%
  Nitrified NH4+—N (%) Day 21: −12.0 ± 1.6%
South Johnstone soil; [8]
  Nitrified NH4+—N (%) Day 28: −7.5 ± 0.5%
South Johnstone soil; [9]
  Nitrified NH4+—N (%) Day 3: −12.3 ± 1.2%
  Nitrified NH4+—N (%) Day 7: −25.3 ± 0.9%
  Nitrified NH4+—N (%) Day 14: −28.1 ± 1.3%
  Nitrified NH4+—N (%) Day 21: −23.0 ± 2.3%
South Johnstone soil; [10]
  Nitrified NH4+—N (%) Day 28: −0.90 ± 2.3%
South Johnstone soil; South Johnstone soil, 25° C., days 21 and 28
  effectiveness among the treatments (NH4+—N retention, NOx−—N growth): least effective
[1]
  inhibition in field studies for reducing leaching and N2O emissions: ≤ 70%
Horsham soil; [11]
  Nitrified NH4+—N (%) Day 3: −6.9 ± 2.8%
Horsham soil; [12]
  Nitrified NH4+—N (%) Day 7: 8.5 ± 2.8%
  Nitrified NH4+—N (%) Day 14: 37.2 ± 2.3%
  Nitrified NH4+—N (%) Day 21: 75.7 ± 5.4%
  Nitrified NH4+—N (%) Day 28: 76.2 ± 2.1%
Horsham soil; [13]
  Nitrified NH4+—N (%) Day 3: 7.9 ± 3.0%
  Nitrified NH4+—N (%) Day 7: 18.9 ± 2.8%
  Nitrified NH4+—N (%) Day 14: 32.3 ± 4.1%
  Nitrified NH4+—N (%) Day 21: 46.6 ± 5.9%
  Nitrified NH4+—N (%) Day 28: 64.5 ± 12.7%
Horsham soil; Horsham soil, 28-day incubation
  NOx−—N accumulation: effect of temperature (25° C. vs 35° C.): greatest increase in production rate at the higher test temperature
Horsham soil; Horsham soil, 35° C.
  retaining NH4+ and preventing NOx production (statistics vs control): performed statistically better
Horsham soil; Horsham soil, 35° C., after 28 days
  NH4+—N consumption: 65%
[2]
  time DMPP remains effective: only one week
